In patent US7868019B2, “Dermatitis treating agent” (Mitsubishi Tanabe Pharma Corporation, priority 2005, dated 2011):

Experiments:
[1] = system: Contact Dermatitis Model; test: Contact dermatitis model (oxazolone sensitization and challenge, ear swelling); format: in vivo, BALB/c male mice; settings: BALB/c mice, oxazolone-sensitized; topical challenge on right ear at Day 7 with 0.5% oxazolone containing 1% (w/v) test compound; ear thickness 24 hours after challenge vs control
Experimental: (1) Effects of Test Compounds in Contact Dermatitis Model (Method) BALB/c male mice (BALB/c AnNCrlCrlj, 5-weeks old, acclimating term: one week, body weight: 20 to 30 g, one group: 4 to 6 mice, available from CHARLES RIVER LABORATORIES JAPAN, INC.) were sensitized by epicutaneous application of 100 μL 0.5% (w/v) oxazolone solution (Solvent: acetone) on the shaved abdomen (Day 0). At the 7th day (Day 7) after sensitization, mice were challenged on both sides of right ears by topical application of 20 μL (10 μL for each side) 0.5% (w/v) oxazolone solution containing 1% (w/v) of respective test compounds (Solvent: acetone or an equal amount mixture of acetone/ethanol). Ear thickness was measured before and 24 hours after challenge by using a thickness gauge. In the control group, sensitized animals were challenged with 20 μL 0.5% (w/v) oxazolone solution containing no test compound (Solvent: acetone) on right ears. Effects of the respective test compounds were expressed as ear swelling inhibitory rate (%) given by the following formula. Ear swelling inhibitory rate (%)=[1−(mean ear swelling of group treated with test compound/mean ear swelling of control group)]×100 Note) Ear swelling=Ear thickness 24 hours after challenge at Day 7−Ear thickness before challenge at Day 7 (2) Effects of Test Compounds on Dermatitis Models Induced by Repeated Topical Application of Hapten (Method)

[2] = system: Dermatitis Models Induced by Repeated Topical Application of Hapten; test: Dermatitis model induced by repeated topical application of hapten (oxazolone, ear swelling); format: in vivo, BALB/c male mice; settings: BALB/c mice; repeated topical challenge (Day 0, 2, 4, 7, 9) with 0.5% oxazolone containing 1% (w/v) test compound; ear thickness 24 hours after final challenge at Day 9 vs control
Experimental: Effects of the respective test compounds were expressed as ear swelling inhibitory rate (%) given by the following formula. Ear swelling inhibitory rate (%)=[1−(mean ear swelling of group treated with test compound/mean ear swelling of control group)]×100 Note) Ear swelling=Ear thickness 24 hours after challenge at Day 7−Ear thickness before challenge at Day 7 (2) Effects of Test Compounds on Dermatitis Models Induced by Repeated Topical Application of Hapten (Method) […], BALE/c male mice (BALB/c AnNCrlCrlj, 5-weeks old, acclimating term: one week, body weight: 20 to 30 g, one group: 4 to 6 mice, available from CHARLES RIVER LABORATORIES JAPAN, INC.) were sensitized on both sides of right ears by a topical application of 20 μL (10 μL for each side) 0.5% (w/v) oxazolone solution (Solvent: acetone)(Day−7). At the respective points of the 7th day (Day 0), 9th day (Day 2), 11th day (Day 4), 14th day (Day 7) and 16th day (Day 9) after sensitization, mice were challenged on the both sides of right ears by topical application of 20 μL (10 μL for each side) 0.5% (w/v) oxazolone solution containing 1% (w/v) of the respective test compounds (Solvent: acetone or an equal amount mixture of acetone/ethanol). Ear thickness was measured before challenge of the test compound solution or suspension by using a thickness gauge. At the final day (Day 9), ear thickness was measured also 24 hours after challenge. In control group, sensitized animals were challenged with 20 μL 0.5% (w/v) oxazolone solution containing no test compound (Solvent: acetone) on right ears. Effects of the respective test compounds were expressed as ear swelling inhibitory rate (%) given by following formula. Ear swelling inhibitory rate (%)=[1−(mean ear swelling of group treated with test compound/mean ear swelling of control group)]×100 Note) Ear swelling=(Thickness of ear 24 hours after final challenge at Day 9)−(Thickness of ear before sensitization at Day−7)

Compound | Ear swelling inhibitory rate (%) Contact dermatitis model [1] [%] | Ear swelling inhibitory rate (%) Dermatitis model induced by repeated application of Hapten [2] [%]
1-[2-[4-(dimethylaminophenyl)phthalazin-1(2H)-one-2-yl]-pyridin-4-yl]-2,3-bis(hydroxymethyl)-6,7-dimethoxy-naphthalene [(9)] | 52.0 | 60.0
COc1cc2cc(CO)c(CO)c(-c3ccnc(-n4c(=O)cc(NCCCNC5CCCCC5)c5ccccc54)c3)c2cc1OC [(8), 1-[2-[1,2-dihydro-4-[3-(cyclohexylamino)propylamino]-2-oxoquinolin-1-yl]pyridin-4-yl]-2,3-bis(hydroxymethyl)-6,7-dimethoxynaphthalene] | 75.0 | 37.0
COc1cc2cc(CO)c(CO)c(-c3ccnc(-n4nc(-c5cccnc5)c5cc(OC)c(OC)cc5c4=O)c3)c2cc1OC [(10), 1-[2-[6,7-dimethoxy-4-(3-pyridyl)phthalazin-1(2H)-one-2-yl]pyridin-4-yl]-2,3-bis(hydroxymethyl)-6,7-dimethoxy-naphthalene] | 66.0 | 
(3S)-1-[2-[4-(dimethylaminophenyl)phthalazin-1(2H)-one-2-yl]pyridin-4-yl]-3,4-dihydro-3-hydroxymethyl-6,7-dimethoxy-isoquinoline [(11)] | 69.0 | 51.0
